Read-outs that look alike come from different tables or passages of the source. Positions of bridges follow the written chain, without caps; N, C: chain ends. Non-standard residues stand in square brackets, D forms with d. Residues, ends and D or L forms follow the SMILES beside them. Nle = CCCC[C@H](N)C(=O)O
How the values were obtained:
[1] = test system: CD8+ lymphocytes (CD3+, CD8+); type: cell-based, human; details: for % Inhibition of cell migration compared to control, CD8+: normalized to untreated control, mean ± SEM of 4-6 experiments
Description: Transwell migration assays were performed similarly as published previously. HMEC-1 cells were seeded at a density of 75,000 cells per well in transwell inserts. Three days after cell seeding, the medium was changed, and the cells were stimulated with 100 ng/mL TNF-α and 20 ng/mL IFN-γ for 16–18 h. On the day of the assay, cells were washed with migration medium (serum-free RPMI medium supplemented with 0.1% BSA) to remove residual cytokines and starved for at least 1 h at 37 °C in migration medium. PBMC were starved for at least 1.5 h in migration medium before addition to the EC. For S1P and lifitegrast-treated samples, the PBMC were preincubated for at least 1.5 h at 37 °C with the ligands before addition to the EC. Pepitem and other peptides were added onto the EC monolayer and preincubated for 15–30 min at 37 °C before the addition of the PBMC. 200,000 PBMC per well were added directly on top of the EC prestimulated with pepitem or other peptides to reach a final volume of 150 μL in the donor compartments. The receiver compartments of the wells were filled with 600 μL RPMI with 20% FBS. After 4 h of migration at 37 °C, the receiver compartment with the migrated cells was collected. The migrated cells were stained with the indicated antibodies: CD3-APC (clone: OKT3, lot: B400127), CD4-PE (clone: OKT4. lot: B379180), CD8-FITC (clone: HIT8a, lot: B370193) from Biolegend and CD3-VioGreen (clone: REA613, lot: 5240502518), CD45RO-FITC (clone: REA611, lot: 5240502519), CD4-PerCP-Vio700 (clone: REA623, lot: 5240506702), CXCR3 PE-Vio615 (clone: REA232, lot: 5240506722), CD196-APC (clone: REA190, lot: 5240506717), CD8-APC-Vio770 (clone: REA734, lot: 5240303993) and CD45RO-PEVio616 (clone: REA611, lot: 5231102514) from Miltenyi Biotec (Bergisch Gladbach, Germany) and counted using precision counting beads (Biolegend) on a CytoflexS flow cytometer (BeckmanCoulter). Data was analyzed using CytExpert (Version 2.4). T cells were gated as CD3^+ cells, T cell subsets were gated as CD4^+ (CD3^+, CD4^+), CD8^+ (CD3^+, CD8^+), memory CD4^+ (CD3^+, CD4^+, CD45RO^+), memory CD8^+ (CD3^+, CD8^+, CD45RO^+) and Th1 cells (CD3^+, CD4^+, CXCR3^+, CCR6^–).
Data were analyzed using GraphPad Prism software. EC50 values were calculated by three-parameter nonlinear regression analysis. For this, the data points were normalized to the number of migrated cells in untreated (buffer) control samples (100%), and the regression was fitted with the top constraint to 100 and the slope fixed to 1. Statistical significance is indicated in graphs as n.s. not significant, * p < 0.05; ** p < 0.01; *** p < 0.001. The statistical tests used are indicated in the respective figure captions.

[2] = test system: Th1 lymphocytes (CD3+, CD4+, CXCR3+, CCR6-) of MS patients; test: Transwell migration assay with PBMC of MS patients, Th1 cells; type: cell-based, human; details: PBMC of treatment-naive MS patients; mean ± SD, 4 independent measurements; p = 0.048
Description: 5 Activity of the novel VhTI-pep 2 and pepitem on patient lymphocytes. PPBMCs were isolated from the blood of MS patients with a very recent disease flare receiving no immunosuppressive or immunomodulatory treatment in the past. The effect of the linear pepitem and VhTI-pep 2 was tested for the T-cell populations (A) CD3^+, (B) Th1, (C) CD4^+, (D) memory CD4^+, (E) CD8^+, and (F) memory CD8^+ cells. Data are shown as mean ± SD for 4 independent measurements. Statistical analysis was performed on the level of total counted cells using repeated measures one-way ANOVA with Dunnett’s post hoc test. Statistical significance is indicated as n.s. (not significant), * p < 0.05; ** p < 0.01; *** p < 0.001.
Human microvascular endothelial cells (HMEC-1 cells, Cytion, Eppelheim, Germany) were cultured in MCDB-131 medium (with 2.2 g/L sodium bicarbonate, without L-glutamine, PAN-Biotech Aidenbach, Germany) supplemented with 10% fetal bovine serum (FBS, Capricorn Scientific, Ebsdorfergrund, Germany), 100 units/ml penicillin-streptomycin (Sigma-Aldrich) 10 ng/mL epidermal growth factor (BioLegend, San Diego, US), 1 μg/mL hydrocortisone (Sigma-Aldrich), and 10 mM L-glutamine (Sigma-Aldrich). For experiments, the cells were used between passage numbers 4–9. […]

Compound: CCCC[C@@H]1NC(=O)[C@H](C(C)C)NC(=O)[C@H](CCCCN)NC(=O)[C@@H](NC(=O)[C@H](CCC(N)=O)NC(=O)[C@H](CCC(=O)O)NC(C)=O)CSSC[C@@H](C(=O)N[C@@H](CCC(=O)O)C(=O)N[C@@H](CCCCN)C(N)=O)NC(=O)[C@H](CC(N)=O)NC(=O)[C@H](CC(=O)O)NC(=O)[C@H](CC(C)C)NC(=O)[C@@H]2CSSC[C@H](NC1=O)C(=O)N[C@@H](Cc1ccc(O)cc1)C(=O)N[C@@H](C)C(=O)N[C@@H](CCC(N)=O)C(=O)NCC(=O)N[C@@H](C)C(=O)N[C@@H](CCC(=O)O)C(=O)N[C@@H](CC(C)C)C(=O)N1CCC[C@H]1C(=O)N[C@@H](CCC(=O)O)C(=O)N[C@@H](CC(C)C)C(=O)N[C@@H](CC(C)C)C(=O)N[C@@H](CCCNC(=N)N)C(=O)N[C@@H](CCCNC(=N)N)C(=O)N2 [VhTI-pep 2] (Ac-EQCKV[Nle]CYAQGAELPELLRRCLDNCEK-NH2; disulfide 3-25, 7-21)
- % Inhibition of cell migration compared to control, CD8+ ([1]; 0.1 μM): 37.0 ± 6.4%
- % Inhibition of cell migration compared to control, CD8+ ([1]; 1 μM): 41.7 ± 8.5%
- EC50 ([1]; EC monolayer pretreated with peptide, healthy-donor PBMC, 4 h, mean ± SD, 4 independent measurements, read-out: EC50, inhibition of CD8+ cell migration): 7.7 ± 11.4 nM
- maximal effect of inhibition of cell migration, CD8+ lymphocytes ([1]; from the concentration-response experiment): 40.0 ± 2.8%
- inhibition of migration of Th1 lymphocytes [2]: 34.3 ± 11.4%

From article PMC12406255, “Engineering Peptide Modulators for T‑Cell Migration by Structural Scaffold Matching” (Journal of Medicinal Chemistry, 2025)
